The source of these data is PubChem BioAssay (NCI).

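These data come from cells grown in 96-well plates and exposed to compound for 48 hours at five concentrations. Definition used: TGI = concentration required for complete inhibition of growth.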

Some test systems named below: RXF 393 renal; OVCAR-8 ovarian; OVCAR-3 ovarian; BT-549 breast; UACC-257 melanoma; SN12C renal; SK-OV-3 ovarian; SK-MEL-5 melanoma; NCI-H23 lung; HL-60(TB) leukemia.
Common to all, as to assay: NCI-60 cell line screen, 48 h

As to `O=C(NCc1ccc(Cl)cc1)c1cc2sccc2nc1C(F)(F)F`, the TGI was 67.4 µM in the test with RXF 393 renal; 72.1 µM in the test on OVCAR-8 ovarian; 98.4 µM with OVCAR-3 ovarian; more than 100 µM in the test on BT-549 breast; more than 100 µM with UACC-257 melanoma; more than 100 µM in the test with SN12C renal. Moreover, the TGI in the test on SK-OV-3 ovarian, with SK-MEL-5 melanoma and in the test on NCI-H23 lung was more than 100 µM in each case.
`CC(C)(C)OC[C@H](O)CC#N`: the TGI with RXF 393 renal, with OVCAR-8 ovarian, with OVCAR-3 ovarian, in the test on BT-549 breast, in the test on UACC-257 melanoma and in the test with SN12C renal was more than 100 µM in each case. For the same compound, the TGI in the test on SK-OV-3 ovarian, in the test with HL-60(TB) leukemia, in the test on SK-MEL-5 melanoma and in the test on NCI-H23 lung was more than 100 µM each time.
With `S=C(S)NCC1CCC(CNC(=S)S)CC1` (centres undefined), the TGI with RXF 393 renal is 40.6 µM; in the test with OVCAR-8 ovarian it was 47.9 µM; in the test on OVCAR-3 ovarian, 30.3 µM; with BT-549 breast, more than 100 µM; with UACC-257 melanoma it was 87.1 µM; in the test with SN12C renal, 44 µM. In addition, the TGI with SK-OV-3 ovarian, with HL-60(TB) leukemia, with SK-MEL-5 melanoma and in the test on NCI-H23 lung was more than 100 µM throughout.
Turning to `Cc1ccc(N=Nc2c(C)c(C#N)c(=S)n(C3OC(CO)C(O)C(O)C3O)c2-c2ccccc2)cc1` (centres undefined), the TGI in the test with RXF 393 renal was 50.6 µM; with OVCAR-3 ovarian it was 41 µM; with BT-549 breast, 42.1 µM; in the test on UACC-257 melanoma, more than 100 µM; in the test on SN12C renal, more than 100 µM; in the test with SK-OV-3 ovarian, more than 100 µM. In addition, the TGI with HL-60(TB) leukemia was more than 100 µM; with SK-MEL-5 melanoma, 23.2 µM; in the test on NCI-H23 lung, 40.4 µM.
With `C[C@]12CC[C@@H]3c4ccc(OC(=O)c5ccccc5)cc4CC[C@H]3[C@@H]1CC[C@@H]2Oc1c2ccccc2nc2ccccc12`, the TGI with RXF 393 renal is 15.8 µM; with OVCAR-8 ovarian it was 45 µM; in the test with OVCAR-3 ovarian, 14.8 µM; with BT-549 breast, 25.1 µM; in the test on UACC-257 melanoma, 38.6 µM; in the test with SK-OV-3 ovarian it was more than 50 µM. Also, the TGI in the test with HL-60(TB) leukemia is 40.4 µM; in the test on SK-MEL-5 melanoma, 18.5 µM; in the test on NCI-H23 lung, more than 50 µM.
Take `CC(=O)OCC=C(CCl)CCC(Br)C(C)(C)Br` (mixture of isomers): the TGI with RXF 393 renal, with OVCAR-8 ovarian, in the test on OVCAR-3 ovarian, in the test on BT-549 breast, in the test with UACC-257 melanoma and in the test with SN12C renal was more than 10 µM throughout. Besides, the TGI in the test on SK-OV-3 ovarian, in the test with HL-60(TB) leukemia, with SK-MEL-5 melanoma and in the test with NCI-H23 lung was more than 10 µM in each case.
Take `C=C(C)C1CC=C(C)C2(C1)OCC(C)(C)C(C)O2` (centres undefined): the TGI in the test with RXF 393 renal is 27.3 µM; in the test with OVCAR-8 ovarian it was 31.7 µM; in the test with OVCAR-3 ovarian it was 29.9 µM; in the test with BT-549 breast it was 36 µM; in the test on UACC-257 melanoma it was 81.9 µM; in the test on SN12C renal it was 33.4 µM. Further, the TGI with SK-OV-3 ovarian came to 53.7 µM; in the test with HL-60(TB) leukemia, 35.5 µM; in the test on SK-MEL-5 melanoma, 29.2 µM; in the test with NCI-H23 lung it was 48.4 µM.
As to `CC(=Nc1ccncc1)C(C)=Nc1ccncc1`, the TGI in the test with RXF 393 renal was 59.8 µM; with OVCAR-8 ovarian, more than 100 µM; in the test on OVCAR-3 ovarian it was 28.8 µM; in the test on BT-549 breast, 42.3 µM; in the test with UACC-257 melanoma, more than 100 µM; in the test with SN12C renal it was 30 µM. The TGI in the test with SK-OV-3 ovarian is more than 100 µM; in the test with HL-60(TB) leukemia, 87.2 µM; in the test on SK-MEL-5 melanoma it was 47.1 µM; in the test with NCI-H23 lung, 32.6 µM.
On to `Clc1ccc(N=c2oc3ccccc3cc2-c2nc3ccccc3[nH]2)c(Cl)c1`, for which the TGI is 41.7 µM in the test on RXF 393 renal; more than 100 µM with OVCAR-8 ovarian; more than 100 µM in the test with OVCAR-3 ovarian; more than 100 µM in the test with BT-549 breast; more than 100 µM in the test on UACC-257 melanoma; more than 100 µM in the test on SK-OV-3 ovarian. The TGI in the test on HL-60(TB) leukemia and in the test with NCI-H23 lung was more than 100 µM throughout.
Turning to `NC(N)=NS(=O)(=O)c1ccc(NC(=O)c2ccc3nc4ccccc4c(Nc4ccc(S(N)(=O)=O)cc4)c3c2)cc1`, the TGI with RXF 393 renal, in the test with OVCAR-8 ovarian, with OVCAR-3 ovarian, in the test on BT-549 breast, in the test with UACC-257 melanoma and in the test on SN12C renal was more than 100 µM each time. The TGI in the test on SK-OV-3 ovarian, in the test on HL-60(TB) leukemia, in the test with SK-MEL-5 melanoma and in the test on NCI-H23 lung was more than 100 µM throughout.
Take `O=c1[nH]c(Nc2cccc(Cl)c2)nc2nc[nH]c12`: the TGI in the test with RXF 393 renal, in the test with OVCAR-8 ovarian, in the test with OVCAR-3 ovarian, in the test with BT-549 breast, with UACC-257 melanoma and in the test on SN12C renal was more than 100 µM each time. Besides, the TGI in the test on SK-OV-3 ovarian, in the test with HL-60(TB) leukemia, with SK-MEL-5 melanoma and in the test on NCI-H23 lung was more than 100 µM in each case.
On to `COc1cc(S(=O)(=O)Nc2ccc(-c3csc(N4C(=O)CSC4c4ccccc4)n3)cc2)ccc1Cl` (centres undefined), for which the TGI with RXF 393 renal was 64.5 µM; in the test with OVCAR-8 ovarian, more than 100 µM; with OVCAR-3 ovarian it was more than 100 µM; in the test on BT-549 breast, more than 100 µM; with UACC-257 melanoma, more than 100 µM; with SN12C renal, more than 100 µM. Moreover, the TGI was more than 100 µM in the test with SK-OV-3 ovarian, 55.7 µM in the test on HL-60(TB) leukemia, more than 100 µM in the test with SK-MEL-5 melanoma and more than 100 µM in the test on NCI-H23 lung.
As to `C[N+](C)(C)c1ncnc2c1ncn2C1CCCCO1` (centres undefined), the TGI in the test on RXF 393 renal, in the test on OVCAR-8 ovarian, in the test on OVCAR-3 ovarian, in the test with BT-549 breast, in the test on UACC-257 melanoma and with SN12C renal was more than 100 µM throughout. The TGI in the test on SK-OV-3 ovarian, in the test on HL-60(TB) leukemia, in the test with SK-MEL-5 melanoma and in the test with NCI-H23 lung was more than 100 µM each time.
As to `O=C1c2cccc3cccc(c23)C(=O)N1CCCNOCCONCCCN1C(=O)c2cccc3cccc(c23)C1=O`, the TGI in the test with RXF 393 renal, with OVCAR-8 ovarian, with OVCAR-3 ovarian, with BT-549 breast, with UACC-257 melanoma and in the test with SK-OV-3 ovarian was more than 100 µM in each case. Besides, the TGI in the test on HL-60(TB) leukemia, with SK-MEL-5 melanoma and with NCI-H23 lung was more than 100 µM throughout.
